From article PMC8042122 (Scientific Reports, 2021)

Tested on: F. graminearum CBS185.32 strain
Format: cell-based, Fusarium graminearum
Conditions: for Impact of methyl caps on the activity of TC3 (ability to inhibit TCTB production): 50 µM

| Substance | Impact of methyl caps on the activity of TC3 (ability to inhibit TCTB production) | Inhibitory activity on TCTB production |
| --- | --- | --- |
| CGNFLKRTC(CH3)ICVKK (disulfide) [TC3-CH3-2Ox, TC3-CH3-2 oxidized, cyclized through the non-capped Cys] | most negative impact |  |
| CGNFLKRTCIC(CH3)VKK (disulfide) [TC3-CH3-3Ox, TC3-CH3-3 oxidized, cyclized through the non-capped Cys] | most negative impact |  |
| CGNFLTRTCICVKK [TC3-K6T, TC3 with Lys6 substituted by Thr] |  | lowest inhibitory activity |
